Numbers after ± are expanded uncertainties.
Experiment: xn = mol fraction of the nth substance listed
Settings: 101 kPa, Liquid; for viscosity: Capillary tube (Ostwald / Ubbelohde) method; for mass density: Vibrating tube method

CCCCOCCOCCO [3,6-dioxa-1-decanol] + O
Settings	mass density, 283.15 K [kg/m3]	mass density, 293.15 K [kg/m3]	mass density, 303.15 K [kg/m3]	mass density, 313.15 K [kg/m3]	mass density, 323.15 K [kg/m3]	viscosity, 283.15 K [mPa·s]	viscosity, 293.15 K [mPa·s]	viscosity, 303.15 K [mPa·s]	viscosity, 313.15 K [mPa·s]	viscosity, 323.15 K [mPa·s]
x1 = 0.00199	1000.2 ± 0.05	998.59 ± 0.05	995.87 ± 0.05	992.68 ± 0.05	–	–	–	–	–	–
x1 = 0.003	1000.41 ± 0.05	998.79 ± 0.05	996.01 ± 0.05	992.86 ± 0.05	–	–	–	–	–	–
x1 = 0.00498	1001.05 ± 0.05	999.2 ± 0.05	996.31 ± 0.05	993.28 ± 0.05	–	–	–	–	–	–
x1 = 0.00617	1001.43 ± 0.05	999.48 ± 0.05	996.53 ± 0.05	993.43 ± 0.05	–	–	–	–	–	–
x1 = 0.00706	1001.75 ± 0.05	999.68 ± 0.05	996.67 ± 0.05	993.51 ± 0.05	–	–	–	–	–	–
x1 = 0.00794	1002 ± 0.05	999.88 ± 0.05	996.81 ± 0.05	993.62 ± 0.05	–	–	–	–	–	–
x1 = 0.00892	1002.32 ± 0.05	1000.11 ± 0.05	996.95 ± 0.05	993.66 ± 0.05	–	–	–	–	–	–
x1 = 0.00993	1002.65 ± 0.05	1000.34 ± 0.05	997.07 ± 0.05	993.71 ± 0.05	–	–	–	–	–	–
x1 = 0.01492	1004.27 ± 0.05	1001.44 ± 0.05	997.66 ± 0.05	993.62 ± 0.05	–	–	–	–	–	–
x1 = 0.02056	1005.74 ± 0.05	1002.03 ± 0.05	997.51 ± 0.05	993.05 ± 0.05	–	–	–	–	–	–
x1 = 0.0238	1006.36 ± 0.05	1002.2 ± 0.05	997.18 ± 0.05	992.61 ± 0.05	–	–	–	–	–	–
x1 = 0.02697	1006.66 ± 0.05	1002.11 ± 0.05	997 ± 0.05	992.19 ± 0.05	–	–	–	–	–	–
x1 = 0.03015	1006.78 ± 0.05	1001.94 ± 0.05	996.61 ± 0.05	991.64 ± 0.05	–	–	–	–	–	–
x1 = 0.03953	1006.53 ± 0.05	1001.04 ± 0.05	995.23 ± 0.05	989.79 ± 0.05	–	–	–	–	–	–
x1 = 0.06038	1005.13 ± 0.05	998.81 ± 0.05	992.28 ± 0.05	986.16 ± 0.06	–	–	–	–	–	–
x1 = 0.07987	1003.42 ± 0.05	996.64 ± 0.05	989.68 ± 0.06	983.24 ± 0.06	–	–	–	–	–	–
x1 = 0.1	1001.67 ± 0.05	994.55 ± 0.05	987.21 ± 0.06	979.73 ± 0.06	971.95 ± 0.06	8.644 ± 0.077	5.684 ± 0.066	3.974 ± 0.043	2.914 ± 0.03	2.216 ± 0.028
x1 = 0.2	992.63 ± 0.06	984.71 ± 0.06	976.63 ± 0.06	968.47 ± 0.07	960.1 ± 0.07	12.36 ± 0.12	7.986 ± 0.094	5.482 ± 0.061	3.942 ± 0.042	2.943 ± 0.034
x1 = 0.2999	985.44 ± 0.07	977.27 ± 0.07	968.97 ± 0.07	960.58 ± 0.08	951.9 ± 0.08	13.32 ± 0.14	8.637 ± 0.1	5.93 ± 0.066	4.259 ± 0.045	3.173 ± 0.035
x1 = 0.4	979.51 ± 0.08	971.27 ± 0.08	962.91 ± 0.08	954.51 ± 0.09	945.89 ± 0.09	13.06 ± 0.14	8.55 ± 0.1	5.913 ± 0.065	4.27 ± 0.045	3.195 ± 0.035
x1 = 0.5	974.9 ± 0.09	966.63 ± 0.1	958.27 ± 0.1	949.82 ± 0.1	941.29 ± 0.1	12.36 ± 0.13	8.183 ± 0.095	5.713 ± 0.063	4.161 ± 0.044	3.133 ± 0.034
x1 = 0.6	971.46 ± 0.11	963.17 ± 0.11	954.74 ± 0.12	946.32 ± 0.12	937.75 ± 0.12	11.49 ± 0.12	7.708 ± 0.089	5.442 ± 0.06	3.998 ± 0.043	3.033 ± 0.033
x1 = 0.7	968.77 ± 0.14	960.45 ± 0.14	952.05 ± 0.14	943.62 ± 0.14	935.03 ± 0.14	10.58 ± 0.11	7.203 ± 0.083	5.144 ± 0.057	3.816 ± 0.041	2.918 ± 0.032
x1 = 0.7998	966.62 ± 0.16	958.25 ± 0.16	949.8 ± 0.17	941.34 ± 0.17	932.8 ± 0.17	9.748 ± 0.11	6.727 ± 0.078	4.857 ± 0.054	3.638 ± 0.039	2.804 ± 0.031
x1 = 0.8999	964.58 ± 0.19	956.18 ± 0.2	947.72 ± 0.2	939.34 ± 0.2	930.8 ± 0.2	9.038 ± 0.098	6.309 ± 0.073	4.601 ± 0.052	3.474 ± 0.038	2.697 ± 0.03
x1 = 1	962.57 ± 0.23	954.16 ± 0.23	945.74 ± 0.23	937.35 ± 0.23	928.85 ± 0.23	8.301 ± 0.092	5.86 ± 0.069	4.323 ± 0.049	3.295 ± 0.036	2.58 ± 0.029
